Measured values published in US11104674B2 (Hoffmann-La Roche Inc., priority 2016, dated 2021).
pIC50: −log10 of the molar value.

What follows are compounds tested on HBsAg (assay: HBsAg assay (chemiluminescence immunoassay of secreted HBsAg)). Conditions: Hepatitis B virus, HepG2.2.15, HBsAg secretion, HepG2.2.15 cells, CLIA of culture supernatant.
Assay type: cell-based, HBV
Procedure: HepG2.2.15 cells (Acs et al. Proc Natl Acad Sci USA, 84, (1987), 4641-4), a constitutively HBV-expressing cell line were cultured in DMEM+Glutamax-I medium (Invitrogen, Carlsbad, Calif., USA), supplemented with 10% fetal bovine serum (Invitrogen) and G418 (Invitrogen) at a final concentration of 200 mg/L and maintained in 5% CO2 at 37° C.
HepG2.2.15 cells were seeded in duplicate into white, 96-well plates at 1.5×10^4 cells/well. The cells were treated with a three-fold serial dilution series of the compounds in DMSO. The final DMSO concentration in all wells was 1% and DMSO was used as no drug control.
The HBsAg chemiluminescence immunoassay (CLIA) kit (Autobio Diagnostics Co., Zhengzhou, China, Catalog number: CL0310-2) was used to measure the levels of secreted HBV antigens semi-quantitatively. For the detection 50 μL/well culture supernatant was used and HBsAg was quantified using HBsAg chemiluminescence immunoassay (CLIA) kit (Autobio Diagnostics Co., Zhengzhou, China, Catalog number: CL0310-2), 50 μL of the supernatant was transferred to the CLIA assay plate and 50 μL of enzyme conjugate reagent was added into each well. The plates were sealed and gently agitated for 1 hour at room temperature. The supernatant-enzyme-mixture was discarded and wells were washed 6 times with 300 μL of PBS.
The residual liquid was removed by plating the CLIA plate right side down on absorbent tissue paper. 25 μL of substrates A and B were added to each well. Luminance was measured using a luminometer (Mithras LB 940 Multimode Microplate Reader) after 10 minutes incubation. Dose-response curves were generated and the IC50 value was extrapolated by using the E-WorkBook Suite (ID Business Solutions Ltd., Guildford, UK). The IC50 was defined as the compound concentration (or conditioned media log dilution) at which HBsAg secretion was reduced by 50% compared to the no drug control.
The compounds according to formula I were tested for their capacity to inhibit HBsAg as described herein.
With `CC1c2cnc(-c3ncccn3)nc2CCN1c1cc(F)cc(N2CCC(O)C2)n1` (stereo not shown) [Example 37, 1-[4-fluoro-6-(5-methyl-2-pyrimidin-2-yl-7,8-dihydro-5H-pyrido[4,3-d]pyrimidin-6-yl)-2-pyridyl]pyrrolidin-3-ol] the pIC50 was 7.96. With `CC(=O)N1CCN(c2cc(F)nc(N3CCc4nc(-c5ncccn5)ncc4C3C)c2)CC1` (stereo not shown) [Example 16, 1-[4-[2-fluoro-6-(5-methyl-2-pyrimidin-2-yl-7,8-dihydro-5H-pyrido[4,3-d]pyrimidin-6-yl)-4-pyridyl]piperazin-1-yl]ethanone] the pIC50 was 7.85. For `CC(=O)N1CCN(c2cc(F)nc(N3CCc4nc(-c5ccccn5)ncc4C3C)c2)CC1` (stereo not shown) [Example 69, 1-[4-[2-fluoro-6-[5-methyl-2-(2-pyridyl)-7,8-dihydro-5H-pyrido[4,3-d]pyrimidin-6-yl]-4-pyridyl]piperazin-1-yl]ethanone], the pIC50 was 7.85. `CC1c2cnc(-c3ncccn3)nc2CCN1c1cc(F)cc(N2CCCC2C(N)=O)n1` (stereo not shown) [Example 43, 1-[4-fluoro-6-(5-methyl-2-pyrimidin-2-yl-7,8-dihydro-5H-pyrido[4,3-d]pyrimidin-6-yl)-2-pyridyl]pyrrolidine-2-carboxamide] showed a pIC50 of 6.87. `CC1c2cnc(-c3ncccn3)nc2CCN1c1cc(N2CCC(O)C2)cc(F)n1` (stereo not shown) [Example 36, 1-[2-fluoro-6-(5-methyl-2-pyrimidin-2-yl-7,8-dihydro-5H-pyrido[4,3-d]pyrimidin-6-yl)-4-pyridyl]pyrrolidin-3-ol] was tested, and the pIC50 was 7.92. For `CC1c2cnc(-c3ncccn3)nc2CCN1c1cc(F)cc(NS(=O)(=O)c2ccccc2)n1` (stereo not shown) [Example 78, N-[4-fluoro-6-(5-methyl-2-pyrimidin-2-yl-7,8-dihydro-5H-pyrido[4,3-d]pyrimidin-6-yl)-2-pyridyl]benzenesulfonamide], the pIC50 was 6.58. `COCC1CCCN1c1cc(F)nc(N2CCc3nc(-c4ncccn4)ncc3C2C)c1` (stereo not shown) [Example 34, 6-[6-fluoro-4-[2-(methoxymethyl)pyrrolidin-1-yl]-2-pyridyl]-5-methyl-2-pyrimidin-2-yl-7,8-dihydro-5H-pyrido[4,3-d]pyrimidine] gave a pIC50 of 7.27. Compound `COC1CCN(c2cc(F)cc(N3CCc4nc(-c5ccccn5)ncc4C3C)n2)C1` (stereo not shown) [Example 84, 6-[4-fluoro-6-(3-methoxypyrrolidin-1-yl)-2-pyridyl]-5-methyl-2-(2-pyridyl)-7,8-dihydro-5H-pyrido[4,3-d]pyrimidine] has a pIC50 of 7.64. With `CC1c2cnc(-c3ncccn3)nc2CCN1c1cc(N2CCC(C(=O)O)C2)cc(F)n1` (stereo not shown) [Example 38, 1-[2-fluoro-6-(5-methyl-2-pyrimidin-2-yl-7,8-dihydro-5H-pyrido[4,3-d]pyrimidin-6-yl)-4-pyridyl]pyrrolidine-3-carboxylic acid] the pIC50 was 6.00. `CC1c2cnc(-c3ncccn3)nc2CCN1c1cc(F)cc(N2CCN(CCC(N)=O)CC2)n1` (stereo not shown) [Example 103, 3-[4-[4-fluoro-6-(5-methyl-2-pyrimidin-2-yl-7,8-dihydro-5H-pyrido[4,3-d]pyrimidin-6-yl)-2-pyridyl]piperazin-1-yl]propanamide] was tested, and the pIC50 was 5.87. Compound `CC1c2cnc(-c3ncccn3)nc2CCN1c1cc(F)cc(N2CCC(C(=O)O)CC2)n1` (stereo not shown) [Example 51, 1-[4-fluoro-6-(5-methyl-2-pyrimidin-2-yl-7,8-dihydro-5H-pyrido[4,3-d]pyrimidin-6-yl)-2-pyridyl]piperidine-4-carboxylic acid] has a pIC50 of 6.46. Compound `CCC(=O)N(C)c1cc(F)nc(N2CCc3nc(-c4ncccn4)ncc3C2C)c1` (stereo not shown) [Example 155, N-[2-Fluoro-6-(5-methyl-2-pyrimidin-2-yl-7,8-dihydro-5H-pyrido[4,3-d]pyrimidin-6-yl)-4-pyridyl]-N-methyl-propanamide] has a pIC50 of 7.07. Work on `CC1c2cnc(-c3ncccn3)nc2CCN1c1cc(F)cc(N2CCN(CC(N)=O)CC2)n1` (stereo not shown) [Example 101, 2-[4-[4-fluoro-6-(5-methyl-2-pyrimidin-2-yl-7,8-dihydro-5H-pyrido[4,3-d]pyrimidin-6-yl)-2-pyridyl]piperazin-1-yl]acetamide] yielded a pIC50 of 7.22. With `CC1c2cnc(-c3ccccn3)nc2CCN1c1cc(N2CCC(C(=O)O)C2)cc(F)n1` (stereo not shown) [Example 68, 1-[2-fluoro-6-[5-methyl-2-(2-pyridyl)-7,8-dihydro-5H-pyrido[4,3-d]pyrimidin-6-yl]-4-pyridyl]pyrrolidine-3-carboxylic acid] the pIC50 was 6.67. `CC(=O)N1CC(Nc2cc(F)nc(N3CCc4nc(-c5ncccn5)ncc4C3C)c2)C1` (stereo not shown) [Example 140, 1-[3-[[2-fluoro-6-(5-methyl-2-pyrimidin-2-yl-7,8-dihydro-5H-pyrido[4,3-d]pyrimidin-6-yl)-4-pyridyl]amino]azetidin-1-yl]ethanone] was tested, and the pIC50 was 6.01. `COC1CCN(c2cc(F)nc(N3CCc4nc(-c5ccccn5)ncc4C3C)c2)C1` (stereo not shown) [Example 83, 6-[6-fluoro-4-(3-methoxypyrrolidin-1-yl)-2-pyridyl]-5-methyl-2-(2-pyridyl)-7,8-dihydro-5H-pyrido[4,3-d]pyrimidine] was tested, and the pIC50 was 7.70. For `CC1c2cnc(-c3ncccn3)nc2CCN1c1cc(N2CC(C(=O)NS(C)(=O)=O)C2)cc(F)n1` (stereo not shown) [Example 64, 1-[2-fluoro-6-(5-methyl-2-pyrimidin-2-yl-7,8-dihydro-5H-pyrido[4,3-d]pyrimidin-6-yl)-4-pyridyl]-N-methylsulfonyl-azetidine-3-carboxamide], the pIC50 was 5.62. `CC1c2cnc(-c3ncccn3)nc2CCN1c1cc(N2CCC2)cc(F)n1` (stereo not shown) [Example 110, 6-[4-(azetidin-1-yl)-6-fluoro-2-pyridyl]-5-methyl-2-pyrimidin-2-yl-7,8-dihydro-5H-pyrido[4,3-d]pyrimidine] was tested, and the pIC50 was 8.10. In the case of `CC1c2cnc(-c3ncccn3)nc2CCN1c1cc(N2CCOC(C(=O)O)C2)cc(F)n1` (stereo not shown) [Example 26, 4-[2-fluoro-6-(5-methyl-2-pyrimidin-2-yl-7,8-dihydro-5H-pyrido[4,3-d]pyrimidin-6-yl)-4-pyridyl]morpholine-2-carboxylic acid], the pIC50 was 5.64. Compound `CC1c2cnc(-c3ncccn3)nc2CCN1c1cc(NC2CCOCC2)cc(F)n1` (stereo not shown) [Example 48, 2-fluoro-6-(5-methyl-2-pyrimidin-2-yl-7,8-dihydro-5H-pyrido[4,3-d]pyrimidin-6-yl)-N-tetrahydropyran-4-yl-pyridin-4-amine] has a pIC50 of 7.26. Work on `CC1c2cnc(-c3ncccn3)nc2CCN1c1cc(F)cc(N2CCN(S(C)(=O)=O)C(C)(C)C2)n1` (stereo not shown) [Example 99, 6-[6-(3,3-dimethyl-4-methylsulfonyl-piperazin-1-yl)-4-fluoro-2-pyridyl]-5-methyl-2-pyrimidin-2-yl-7,8-dihydro-5H-pyrido[4,3-d]pyrimidine] yielded a pIC50 of 7.59. For `CC1c2cnc(-c3ncccn3)nc2CCN1c1cc(N2CCN(S(C)(=O)=O)CC2=O)cc(F)n1` (stereo not shown) [Example 128, 1-[2-Fluoro-6-(5-methyl-2-pyrimidin-2-yl-7,8-dihydro-5H-pyrido[4,3-d]pyrimidin-6-yl)-4-pyridyl]-4-methylsulfonyl-piperazin-2-one], the pIC50 was 6.38. Work on `CC1c2cnc(-c3ccccn3)nc2CCN1c1cc(F)cc(N2CCCC(C(N)=O)C2)n1` (stereo not shown) [Example 76, 1-[4-fluoro-6-[5-methyl-2-(2-pyridyl)-7,8-dihydro-5H-pyrido[4,3-d]pyrimidin-6-yl]-2-pyridyl]piperidine-3-carboxamide] yielded a pIC50 of 7.36. With `CC1c2cnc(-c3ncccn3)nc2CCN1c1cc(N2CCN(S(C)(=O)=O)CC2)cc(F)n1` (stereo not shown) [Example 58, 6-[6-fluoro-4-(4-methylsulfonylpiperazin-1-yl)-2-pyridyl]-5-methyl-2-pyrimidin-2-yl-7,8-dihydro-5H-pyrido[4,3-d]pyrimidine] the pIC50 was 7.82. Compound `CC1c2cnc(-c3ncccn3)nc2CCN1c1cc(N2CCCC2C(=O)O)cc(F)n1` (stereo not shown) [Example 32, 1-[2-fluoro-6-(5-methyl-2-pyrimidin-2-yl-7,8-dihydro-5H-pyrido[4,3-d]pyrimidin-6-yl)-4-pyridyl]pyrrolidine-2-carboxylic acid] has a pIC50 of 6.41. With `CC1c2cnc(-c3ncccn3)nc2CCN1c1cc(F)cc(N2CC(F)(F)C2)n1` (stereo not shown) [Example 125, 6-[6-(3,3-difluoroazetidin-1-yl)-4-fluoro-2-pyridyl]-5-methyl-2-pyrimidin-2-yl-7,8-dihydro-5H-pyrido[4,3-d]pyrimidine] the pIC50 was 7.42. For `CC1c2cnc(-c3ncccn3)nc2CCN1c1cc(F)cc(N2CCC(C(=O)O)C2)n1` (stereo not shown) [Example 39, 1-[4-fluoro-6-(5-methyl-2-pyrimidin-2-yl-7,8-dihydro-5H-pyrido[4,3-d]pyrimidin-6-yl)-2-pyridyl]pyrrolidine-3-carboxylic acid], the pIC50 was 6.97. With `CC1CN(c2cc(F)nc(N3CCc4nc(-c5ncccn5)ncc4C3C)c2)CCO1` (stereo not shown) [Example 4, 4-[2-fluoro-6-(5-methyl-2-pyrimidin-2-yl-7,8-dihydro-5H-pyrido[4,3-d]pyrimidin-6-yl)-4-pyridyl]-2-methyl-morpholine] the pIC50 was 8.10.
